Reference: PMC8161026, “Synthesis and Anticancer Activity Evaluation of 5-[2-Chloro-3-(4-nitrophenyl)-2-propenylidene]-4-thiazolidinones” (Molecules, 2021)

Columns and labels:
EKVX [1] = test: cells; details: Homo sapiens, 48 h
Breast Cancer subpanel = test: cells
Procedure: (§1) At the first stage of biological activity study, the antitumor activity screening of the selected compounds 2b, 2c, 2f, 2h, and 2j was performed according to the NCI DTP (USA) standard protocol at the concentrations ranging from 10^−4 to 10^−8 M toward 60 tumor cell lines. The percentage of growth was evaluated spectrophotometrically versus controls not treated with test agents after 48 h exposure and using SRB protein assay to estimate cell viability or growth. Dose–response parameters were calculated for each cell line: GI50—molar concentration of the compound that inhibits 50% net cell growth; TGI—molar concentration of the compound leading to the total inhibition; and LC50—molar concentration of the compound leading to 50% net cell death. Furthermore, mean graph midpoints (MG_MID) were calculated for each of the parameters, giving an average activity parameter over all cell lines for the tested compound. For the MG_MID calculation, insensitive cell lines were included with the highest concentration tested.
(§2) The selectivity index (SI) obtained by dividing the full panel MG-MID (mM) of the tested compound by their individual subpanel MG-MID (mM) was considered as a measure of selectivity of anticancer activity (Table 3).
(§3) Primary anticancer assay was performed on a panel of approximately sixty human tumor cell lines derived from nine neoplastic diseases, in accordance with the protocol of the Drug Evaluation Branch, National Cancer Institute, Bethesda. Tested compounds were added to the culture at a single concentration (10^−5 M) and the cultures were incubated for 48 h. End point determinations were made with a protein binding dye, sulforhodamine B (SRB). […] The percentage growth was evaluated spectrophotometrically versus controls not treated with test agents.
(§4) Dose–response parameters (GI50, TGI, LC50) were calculated for each compound. […] The drug concentration resulting in total growth inhibition (TGI) was calculated from Ti = Tz. The LC50 (concentration of drug resulting in a 50% reduction in the measured protein at the end of the drug treatment as compared to that at the beginning) indicating a net loss of cells following treatment was calculated from [(Ti − Tz)/Tz] × 100 = −50 (2). Values were calculated for each of these parameters if the level of activity was reached; however, if the effect was not reached or was excessive, the value for that parameter was expressed as more or less than the maximum or minimum concentration tested.

Renal Cancer subpanel = test: cells
Procedure: as §1, §2, §3, §4

CNS Cancer subpanel = test: cells
Procedure: as §1, §2, §3, §4

[2] = tested on: Non-Small Cell Lung Cancer subpanel; test: cells
Procedure: as §1, §2, §3, §4

Colon Cancer subpanel = test: cells
Procedure: as §1, §2, §3, §4

Ovarian Cancer subpanel = test: cells
Procedure: as §1, §2, §3, §4

Melanoma subpanel = test: cells
Procedure: as §1, §2, §3, §4

Prostate Cancer subpanel = test: cells
Procedure: as §1, §2, §3, §4

Leukemia subpanel = test: cells
Procedure: as §1, §2, §3, §4

IGROV1 = test: NCI DTP 60 cell line screen, SRB
K-562 [3] = tested on: K-562
OVCAR-8 = test: NCI DTP 60 cell line screen, SRB
SR = test: cells; details: Homo sapiens, 48 h
PC-3 = test: cells; details: Homo sapiens, PC-3, 48 h
K-562 [4] = test: cells; details: Homo sapiens, K562, 48 h
SK-MEL-2 = SK-MEL-2 (Melanoma), 48 h, SRB
MOLT-4 = test: cells; details: Homo sapiens, MOLT-4, 48 h
EKVX [5] = details: EKVX (Non-Small Cell Lung Cancer), 48 h, SRB
[6] = Homo sapiens, read-out: MG_MID, GI50
[7] = Homo sapiens, read-out: MG_MID, LC50

O=C(O)CCN1C(=O)/C(=C/C(Cl)=C/c2ccc([N+](=O)[O-])cc2)SC1=S [Compound 2h, 3-{5-[(Z,2Z)-2-Chloro-3-(4-nitrophenyl)-2-propenylidene]-4-oxo-2-thioxothiazolidin-3-yl}propanoic acid]
GI50 (EKVX [1]): 0.334 µM | CC50 (EKVX [1]; read-out: LC50): 55.6 µM | SI (selectivity index), GI50 (Breast Cancer subpanel): 2.63 | SI (selectivity index), TGI (Breast Cancer subpanel): 0.63 | MG_MID, TGI (Breast Cancer subpanel; Breast Cancer panel mean): 21.1 µM | GI50 (Breast Cancer subpanel; [6]): 0.598 µM | CC50 (Breast Cancer subpanel; [7]): 49.6 µM | SI (selectivity index), LC50 (Breast Cancer subpanel; full panel MG_MID / Breast Cancer subpanel MG_MID): 1.31 | SI (selectivity index), TGI (Renal Cancer subpanel): 2.77 | GI50 (Renal Cancer subpanel; [6]): 0.99 µM | CC50 (Renal Cancer subpanel; [7]): 23.8 µM | MG_MID, TGI (Renal Cancer subpanel; Renal Cancer panel mean): 4.81 µM | SI (selectivity index), LC50 (Renal Cancer subpanel; full panel MG_MID / Renal Cancer subpanel MG_MID): 2.73 | SI (selectivity index), GI50 (CNS Cancer subpanel): 0.50 | SI (selectivity index), TGI (CNS Cancer subpanel): 0.75 | MG_MID, TGI (CNS Cancer subpanel; CNS Cancer panel mean): 17.7 µM | GI50 (CNS Cancer subpanel; [6]): 3.13 µM | CC50 (CNS Cancer subpanel; [7]): 84.9 µM | SI (selectivity index), LC50 (CNS Cancer subpanel; full panel MG_MID / CNS Cancer subpanel MG_MID): 0.77 | SI (selectivity index), GI50 [2]: 0.59 | SI (selectivity index), TGI [2]: 1.38 | GI50 [2, 6]: 2.65 µM | CC50 [2, 7]: 61.4 µM | MG_MID, TGI ([2]; Non-Small Cell Lung Cancer panel mean): 9.61 µM | SI (selectivity index), LC50 ([2]; full panel MG_MID / Non-Small Cell Lung Cancer subpanel MG_MID): 1.06 | SI (selectivity index), GI50 (Colon Cancer subpanel): 3.43 | SI (selectivity index), TGI (Colon Cancer subpanel): 0.57 | MG_MID, TGI (Colon Cancer subpanel; Colon Cancer panel mean): 23.3 µM | GI50 (Colon Cancer subpanel; [6]): 0.458 µM | CC50 (Colon Cancer subpanel; [7]): > 100 µM | SI (selectivity index), LC50 (Colon Cancer subpanel; full panel MG_MID / Colon Cancer subpanel MG_MID): <0.65 | SI (selectivity index), GI50 (Ovarian Cancer subpanel): 0.74 | SI (selectivity index), TGI (Ovarian Cancer subpanel): 1.05 | GI50 (Ovarian Cancer subpanel; [6]): 2.13 µM | CC50 (Ovarian Cancer subpanel; [7]): 68.7 µM | MG_MID, TGI (Ovarian Cancer subpanel; Ovarian Cancer panel mean): 12.7 µM | SI (selectivity index), LC50 (Ovarian Cancer subpanel; full panel MG_MID / Ovarian Cancer subpanel MG_MID): 0.95 | SI (selectivity index), GI50 (Melanoma subpanel): 0.64 | SI (selectivity index), TGI (Melanoma subpanel): 0.96 | GI50 (Melanoma subpanel; [6]): 2.45 µM | CC50 (Melanoma subpanel; [7]): 53.1 µM | MG_MID, TGI (Melanoma subpanel; Melanoma panel mean): 13.9 µM | SI (selectivity index), LC50 (Melanoma subpanel; full panel MG_MID / Melanoma subpanel MG_MID): 1.22 | SI (selectivity index), GI50 (Prostate Cancer subpanel): 2.77 | SI (selectivity index), TGI (Prostate Cancer subpanel): 1.55 | GI50 (Prostate Cancer subpanel; [6]): 0.567 µM | CC50 (Prostate Cancer subpanel; [7]): 47.1 µM | MG_MID, TGI (Prostate Cancer subpanel; Prostate Cancer panel mean): 8.59 µM | SI (selectivity index), LC50 (Prostate Cancer subpanel; full panel MG_MID / Prostate Cancer subpanel MG_MID): 1.38 | SI (selectivity index), GI50 (Leukemia subpanel): 10.83 | SI (selectivity index), TGI (Leukemia subpanel): 2.45 | TI (Therapeutic Index) (Leukemia subpanel; GI50 (normal blood lymphocyte)/GI50 (Leukemia Panel)): 376.14 | GI50 (Leukemia subpanel; [6]): 0.145 µM | CC50 (Leukemia subpanel; [7]): > 100 µM | MG_MID, TGI (Leukemia subpanel; Leukemia panel mean): 5.42 µM | SI (selectivity index), LC50 (Leukemia subpanel; full panel MG_MID / Leukemia subpanel MG_MID): <0.65 | GI50 (IGROV1; Homo sapiens, IGROV-1, 48 h): 0.794 µM | CC50 (IGROV1; Homo sapiens, IGROV-1, 48 h, read-out: LC50): 43.1 µM | TGI (IGROV1; IGROV1 (Ovarian Cancer), 48 h, SRB): 3.68 µM | TI (Therapeutic Index) (K-562 [3]; GI50 (normal blood lymphocyte)/GI50 (K-562)): 257.26 | TGI (K-562 [3]; K-562 (Leukemia), 48 h, SRB): 2.83 µM | GI50 (OVCAR-8; Homo sapiens, OVCAR-8, 48 h): 0.244 µM | CC50 (OVCAR-8; Homo sapiens, OVCAR-8, 48 h, read-out: LC50): > 100 µM | TGI (OVCAR-8; OVCAR-8 (Ovarian Cancer), 48 h, SRB): 11.5 µM | GI50 (SR): < 0.01 µM | CC50 (SR; read-out: LC50): > 100 µM | TI (Therapeutic Index) (RPMI-8226; GI50 (normal blood lymphocyte)/GI50 (RPMI-8226)): 395.22 | TGI (RPMI-8226; RPMI-8226 (Leukemia), 48 h, SRB): 1.30 µM | GI50 (PC-3): 0.712 µM | CC50 (PC-3; read-out: LC50): 41.9 µM | GI50 (K-562 [4]): 0.212 µM | CC50 (K-562 [4]; read-out: LC50): > 100 µM | TGI (SK-MEL-2): 4.93 µM | GI50 (MOLT-4): 0.016 µM | CC50 (MOLT-4; read-out: LC50): > 100 µM | TGI (EKVX [5]): 4.01 µM
